The values below come from patent publication US6410735B1, “1-(4-arylpiperazin-1-y1)-ω-[N-(α,ω-dicarboximido)]-alkanes useful as uro-selective α1-adrenoceptor blockers” (Ranbaxy Laboratories Limited, priority 1997, dated 2002).

What is called Ki is the dissociation constant of the complex between target and ligand, obtained from inhibition or displacement.

The target of one experiment is T1, α1A-adrenoceptor (Rattus norvegicus, UniProt P43140).
T1 construct: from tissue; host or cells: rat submaxillary gland membranes
T1 sequence (P43140 1-466): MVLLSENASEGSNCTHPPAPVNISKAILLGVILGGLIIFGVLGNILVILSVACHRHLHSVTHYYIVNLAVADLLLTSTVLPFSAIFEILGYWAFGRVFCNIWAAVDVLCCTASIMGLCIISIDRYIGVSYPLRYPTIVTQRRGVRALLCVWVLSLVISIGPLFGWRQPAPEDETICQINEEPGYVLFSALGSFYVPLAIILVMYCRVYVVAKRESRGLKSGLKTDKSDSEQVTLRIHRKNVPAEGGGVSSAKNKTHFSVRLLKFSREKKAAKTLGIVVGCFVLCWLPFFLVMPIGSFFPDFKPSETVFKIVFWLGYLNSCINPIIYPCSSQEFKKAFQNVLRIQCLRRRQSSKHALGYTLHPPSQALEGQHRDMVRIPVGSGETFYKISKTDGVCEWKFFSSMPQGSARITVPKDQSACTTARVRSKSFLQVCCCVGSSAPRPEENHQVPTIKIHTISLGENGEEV
Description: Receptor binding assay, [3H]prazosin, rat submaxillary membranes. Particulars: rat submaxillary membranes, 0.5 nM [3H]prazosin; read-out: RBA (Ki nM) α1A. As to the method: (§1) Receptor binding assays, (RBA's) were performed for native α1-adrenoceptors. Rat submaxillary and rat liver membrane preparations were used to assess the affinity for α1A and α1B subtypes, respectively. Aliquots of membrane protein ([…]) were incubated in a final volume of […] assay buffer (50 mM Tris, 0.5 mM EDTA at pH 7.4) with 0.5 nM [^3H] prazosin for 60 mins at 28 ° C. Reaction was stopped by rapid filtration on Millipore filters. Filters were dried and bound radioactivity counted. Non-specific binding was determined in the presence of 0.3 mM prazosin.
Take `COc1cccc(N2CCN(CCCN3C(=O)CCCC3=O)CC2)c1` [Compound 23, 1-[4-(3-Methoxyphenyl)piperazin-1yl]-3-(2,6-dioxopiperidin-1-yl)propane]: the Ki was determined as 2170 nM.
As to `COc1ccccc1N1CCN(CCCN2C(=O)CC(c3ccccc3)C2=O)CC1` (centres unmarked) [Compound 26, 1-[4-(2-Methoxyphenyl)piperazin-1yl]-3-[2,5-dioxo-3-phenyl-pyrolidin-1-yl]propane], the Ki is 30 nM.
Same read-out and setting: the value for `O=C1CCCC(=O)N1CCCN1CCN(c2cccc(Cl)c2)CC1` [Compound 20, 1-[4-(3-Chlorophenyl)piperazin-1-yl]-3-(2,6-dioxopiperidin-1-yl)propane] was 22 nM.
The same measure, in the same setting: for `O=C1CCC(=O)N1CCCN1CCC(c2ccccc2)CC1` [Compound 27, 1-[4-(Phenyl)piperidin-1-yl]-3-[2,5-dioxopyrolidin-1-yl]propane] the value was 1300 nM; for `O=C1CCC(=O)N1CCCN1CCN(c2cccc(C(F)(F)F)c2)CC1` [Compound 3, 1-[4-(3-Trifluoromethylphenyl)piperazin-1-yl]-3-(2,5-dioxopyrrolidin-1-yl)propane], 1500 nM; for `O=C1CCCC(=O)N1CCCN1CCN(c2ccccn2)CC1` [Compound 19, 1-[4-(2-Pyridyl)piperazin-1-yl)-3-(2,6-dioxopiperidin-1-yl)propane], 164 nM.
Still for that read-out and setting: the value for `COc1ccccc1N1CCN(CCCCN2C(=O)CCCC2=O)CC1` [Compound 25, 1-[4-(2-Methoxyphenyl)piperazin-1yl]-4-(2,6-dioxopiperidin-1yl)butane] was 1.6 nM; that for `COc1ccc(N2CCN(CCCN3C(=O)CCC3=O)CC2)cc1` [Compound 12, 1-[4-(4-Methoxyphenyl)piperazin-1yl]-3-(2,5-dioxopyrrolidin-1yl)propane] was more than 2500 nM; that for `O=C1CCCC(=O)N1CCCN1CCN(c2ncccn2)CC1` [Compound 22, 1-[4-(2-Pyrimidyl)piperazin-1-yl]-3-(2,6-dioxopiperidin-1-yl)propane] was more than 2500 nM.

A further experiment addresses T2, α1B-adrenoceptor (Rattus norvegicus, UniProt P15823).
T2 construct: from tissue; host or cells: rat liver membranes
T2 sequence (P15823 1-515): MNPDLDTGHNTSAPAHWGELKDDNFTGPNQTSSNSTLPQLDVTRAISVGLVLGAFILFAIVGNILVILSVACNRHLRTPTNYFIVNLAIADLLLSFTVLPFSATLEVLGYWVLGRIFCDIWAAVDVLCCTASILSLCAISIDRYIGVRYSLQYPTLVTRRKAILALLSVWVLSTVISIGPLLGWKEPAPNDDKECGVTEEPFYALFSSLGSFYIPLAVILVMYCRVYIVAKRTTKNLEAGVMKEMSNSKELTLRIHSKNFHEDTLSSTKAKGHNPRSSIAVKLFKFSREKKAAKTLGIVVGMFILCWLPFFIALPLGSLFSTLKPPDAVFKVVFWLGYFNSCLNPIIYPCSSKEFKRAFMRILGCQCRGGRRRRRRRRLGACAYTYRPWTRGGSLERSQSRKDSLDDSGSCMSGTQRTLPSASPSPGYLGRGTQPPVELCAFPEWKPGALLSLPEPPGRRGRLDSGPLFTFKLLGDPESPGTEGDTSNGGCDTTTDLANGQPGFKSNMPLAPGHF
Description: Receptor binding assay, [3H]prazosin, rat liver membranes. Conditions: rat liver membranes, 0.5 nM [3H]prazosin; read-out: RBA (Ki nM) α1B. As to the method:
as §1
As to `COc1cccc(N2CCN(CCCN3C(=O)CCCC3=O)CC2)c1` [Compound 23, 1-[4-(3-Methoxyphenyl)piperazin-1yl]-3-(2,6-dioxopiperidin-1-yl)propane], the inhibition constant (Ki) was 940 nM.
For `COc1ccccc1N1CCN(CCCN2C(=O)CC(c3ccccc3)C2=O)CC1` (centres unmarked) [Compound 26, 1-[4-(2-Methoxyphenyl)piperazin-1yl]-3-[2,5-dioxo-3-phenyl-pyrolidin-1-yl]propane], the Ki came to 600 nM.
For the compound `O=C1CCCC(=O)N1CCCN1CCN(c2cccc(Cl)c2)CC1` [Compound 20, 1-[4-(3-Chlorophenyl)piperazin-1-yl]-3-(2,6-dioxopiperidin-1-yl)propane], the inhibition constant (Ki) was 113 nM.
On the same count and under the same terms, the value for `O=C1CCC(=O)N1CCCN1CCC(c2ccccc2)CC1` [Compound 27, 1-[4-(Phenyl)piperidin-1-yl]-3-[2,5-dioxopyrolidin-1-yl]propane] was 2000 nM.
Same read-out and setting: the value for `O=C1CCC(=O)N1CCCN1CCN(c2cccc(C(F)(F)F)c2)CC1` [Compound 3, 1-[4-(3-Trifluoromethylphenyl)piperazin-1-yl]-3-(2,5-dioxopyrrolidin-1-yl)propane] was 1000 nM.
As to `O=C1CCCC(=O)N1CCCN1CCN(c2ccccn2)CC1` [Compound 19, 1-[4-(2-Pyridyl)piperazin-1-yl)-3-(2,6-dioxopiperidin-1-yl)propane], the inhibition constant (Ki) was more than 2500 nM.
The same measure, in the same setting: the value for `COc1ccccc1N1CCN(CCCCN2C(=O)CCCC2=O)CC1` [Compound 25, 1-[4-(2-Methoxyphenyl)piperazin-1yl]-4-(2,6-dioxopiperidin-1yl)butane] was 7.5 nM; that for `COc1ccc(N2CCN(CCCN3C(=O)CCC3=O)CC2)cc1` [Compound 12, 1-[4-(4-Methoxyphenyl)piperazin-1yl]-3-(2,5-dioxopyrrolidin-1yl)propane] was more than 2500 nM; that for `O=C1CCCC(=O)N1CCCN1CCN(c2ncccn2)CC1` [Compound 22, 1-[4-(2-Pyrimidyl)piperazin-1-yl]-3-(2,6-dioxopiperidin-1-yl)propane] was more than 2500 nM.

The target of a further experiment is T3, α1A-adrenoceptor (prostate) (Rattus norvegicus, UniProt P43140).
T3 construct: Aorta, prostate and spleen tissues were isolated from urethane anaesthetized (1.5 gm/kg) male wistar rats; from tissue; host or cells: isolated prostate of male Wistar rats
T3 sequence (P43140 1-466): T1 sequence (P43140 1-466)
Description: In vitro functional assay, phenylephrine-induced contraction of isolated prostate. In kind it is cell-based. Conditions: rat prostate, phenylephrine; read-out: In Vitro Functional Assay (pKB) α1A (converted). The text has this: (§2) In order to study selectivity of action of the present compounds towards different α-adrenoceptor subtypes, the ability of these compounds to antagonize α1-adrenoceptor agonist induced contractile response of aorta (α1D), prostate (α1A) and spleen (α1B) was studied. Aorta, prostate and spleen tissues were isolated from urethane anaesthetized (1.5 gm/kg) male wistar rats. Isolated tissues were mounted in organ bath containing Krebs Henseleit buffer of the following composition (mM): NaCl 118; KCl 4.7; CaCl2 2.5; MgSO4·H2O 1.2; NaHCO3 25; KH2PO4 1.2; glucose 11.5. Buffer was maintained at 37° C. and aerated with a mixture of 95% O2 and 5% CO2. A resting tension of 2 g (aorta) or 1 g (spleen and prostate) was applied to tissues. Contractile response was monitored using a force displacement transducer and recorded on chart recorders. Tissues were allowed to equilibrate for 2 hours. At the end of equilibration period, concentration response curves to norepinephrine (aorta) and phenylephrine (spleen and prostate) were obtained in the absence and presence of the tested compound (at concentrations of 0.1, 1 and 10 μM). Antagonist affinity was calculated and expressed as PKB values in Table 1.
As for `O=C1CCCC(=O)N1CCCN1CCN(c2cccc(Cl)c2)CC1` [Compound 20, 1-[4-(3-Chlorophenyl)piperazin-1-yl]-3-(2,6-dioxopiperidin-1-yl)propane], the Kb is 31.6 nM.
On the same count and under the same terms, for `O=C1CCCC(=O)N1CCCN1CCN(c2ccccn2)CC1` [Compound 19, 1-[4-(2-Pyridyl)piperazin-1-yl)-3-(2,6-dioxopiperidin-1-yl)propane] the value was 398 nM; for `O=C1CCCC(=O)N1CCCN1CCN(c2ncccn2)CC1` [Compound 22, 1-[4-(2-Pyrimidyl)piperazin-1-yl]-3-(2,6-dioxopiperidin-1-yl)propane], 398 nM.

Another experiment deals with T4, α1B-adrenoceptor (spleen) (Rattus norvegicus, UniProt P15823).
T4 construct: Aorta, prostate and spleen tissues were isolated from urethane anaesthetized (1.5 gm/kg) male wistar rats; from tissue; host or cells: isolated spleen of male Wistar rats
T4 sequence (P15823 1-515): T2 sequence (P15823 1-515)
Description: In vitro functional assay, phenylephrine-induced contraction of isolated spleen. In kind it is cell-based.
Conditions: not given
Description: as §2
With `O=C1CCC(=O)N1CCCN1CCN(c2cccc(C(F)(F)F)c2)CC1` [Compound 3, 1-[4-(3-Trifluoromethylphenyl)piperazin-1-yl]-3-(2,5-dioxopyrrolidin-1-yl)propane], the Kb was 63.1 nM.

The next experiment addresses T5, α1D-adrenoceptor (aorta) (Rattus norvegicus, UniProt P23944).
T5 construct: Aorta, prostate and spleen tissues were isolated from urethane anaesthetized (1.5 gm/kg) male wistar rats; from tissue; host or cells: isolated aorta of male Wistar rats
T5 sequence (P23944 1-561): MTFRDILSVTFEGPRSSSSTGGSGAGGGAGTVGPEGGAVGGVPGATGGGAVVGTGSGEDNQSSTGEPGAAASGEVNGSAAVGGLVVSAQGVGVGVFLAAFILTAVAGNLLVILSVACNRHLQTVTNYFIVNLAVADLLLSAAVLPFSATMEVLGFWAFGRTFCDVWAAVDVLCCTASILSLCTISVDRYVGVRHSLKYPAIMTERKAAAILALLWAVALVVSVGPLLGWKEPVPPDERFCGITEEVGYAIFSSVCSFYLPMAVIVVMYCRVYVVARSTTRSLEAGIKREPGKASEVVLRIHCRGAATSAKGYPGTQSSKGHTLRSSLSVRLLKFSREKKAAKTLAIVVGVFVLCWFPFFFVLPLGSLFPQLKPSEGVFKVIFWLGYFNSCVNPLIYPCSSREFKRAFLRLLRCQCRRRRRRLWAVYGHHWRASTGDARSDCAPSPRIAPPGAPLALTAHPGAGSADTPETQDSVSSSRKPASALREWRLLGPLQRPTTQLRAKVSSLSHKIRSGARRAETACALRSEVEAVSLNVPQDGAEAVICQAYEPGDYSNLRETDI
Description: In vitro functional assay, norepinephrine-induced contraction of isolated aorta. Type of experiment: cell-based. Particulars: rat aorta, norepinephrine; read-out: In Vitro Functional Assay (pKB) α1D (converted).
Description: as §2
With `O=C1CCCC(=O)N1CCCN1CCN(c2cccc(Cl)c2)CC1` [Compound 20, 1-[4-(3-Chlorophenyl)piperazin-1-yl]-3-(2,6-dioxopiperidin-1-yl)propane], the Kb was 25.1 nM.
Still for that read-out and setting: for `O=C1CCC(=O)N1CCCN1CCN(c2cccc(C(F)(F)F)c2)CC1` [Compound 3, 1-[4-(3-Trifluoromethylphenyl)piperazin-1-yl]-3-(2,5-dioxopyrrolidin-1-yl)propane] the value was 10000 nM.
Same read-out and setting: for `O=C1CCCC(=O)N1CCCN1CCN(c2ccccn2)CC1` [Compound 19, 1-[4-(2-Pyridyl)piperazin-1-yl)-3-(2,6-dioxopiperidin-1-yl)propane] the value was 200 nM; for `O=C1CCCC(=O)N1CCCN1CCN(c2ncccn2)CC1` [Compound 22, 1-[4-(2-Pyrimidyl)piperazin-1-yl]-3-(2,6-dioxopiperidin-1-yl)propane], 100 nM.
